Reference: patent US8895599B2, “Lipoprotein lipase-activating compositions comprising benzene derivates” (Otsuka Pharmaceutical Factory, Inc., priority 2008, dated 2014)

Legend:
[1] = Therapeutical effect on olive oil-induced triglyceride hyperlipidemia models; type: in vivo; conditions: once a day for one week, SD rats, 2 h after olive oil
Protocol: Test of Therapeutical Effect on Olive Oil-Induced Triglyceride Hyperlipidemia Models
To conduct this test, 6-week-old SD rats (purchased from Charles River Japan) were used.
According to the body weight of the test rats when they were 5 weeks old, the test rats were divided into test groups and a control group with 6 rats per group.
A predetermined amount of each compound prepared in the Examples was measured and placed in an agate mortar. While 5% aqueous gum arabic solution was gradually introduced to the mortar, the compound was uniformly ground and suspended. Test samples were prepared by further adding 5% aqueous gum arabic solution gradually. Subsequently, these test samples were subjected to ultrasonic washing for 10 minutes to homogenize. Test samples were prepared as and when necessary.
The rats of the test groups were orally administered with the compounds of the invention such that rats received the compounds in an amount of 10, 30, or 100 mg/kg. The compounds of the invention were formulated as 5% gum arabic suspensions as described above.
The rats of the control group were orally administered with 5% aqueous gum arabic solution (not containing the compounds of the invention) in an amount of 5 ml/kg body weight. Administration was conducted once a day continuously for one week at a specific time of day after the rats reached 6 weeks of age. This test was performed under non-fasting conditions (rats had free access to feed and water), and the rats were fasted after the final administration of the compounds or 5% aqueous gum arabic solution.
Two hours after the final administration, olive oil was orally administered to the rats from both groups in an amount of 3 ml/kg body weight.
Two hours after the olive oil administration, blood was collected from the abdominal aorta of the rats of the respective groups using a heparinized syringe. The plasma was centrifugally separated from the blood at a temperature of 4° C., and the triglyceride level of the plasma was measured. A Hitachi 7170 automatic analyzer was used as the measuring instrument. Using the values measured from the test groups and control group, the decrease (%) in plasma triglyceride level was calculated according to the following equation: Decrease (%) in plasma triglyceride concentration=(1−E/C)×100 wherein E represents the average plasma triglyceride level in each test group; and C represents the average plasma triglyceride level in the control group.

LPL = test: Test for LPL activity-increasing effect in normal rats (skeletal muscle LPL activity); type: in vivo; conditions: every day for 1 week, SD rats, soleus muscle, 4 h after administration
Protocol: Test for LPL Activity-Increasing Effect in Normal Rats
6-week-old SD rats (purchased from Charles River Japan) were used as subjects. The rats were divided into groups according to body weight at the age of 5 weeks. The rats in each test group were orally administered with a 5% gum arabic suspension in an amount of 5 ml/kg of body weight, the suspension containing the test compound of the invention in such an amount that the dose of the compound of the invention became 30 mg/kg of body weight in one group and 100 mg/kg of body weight in another group. The rats in a control group were orally administered with a 5% gum arabic suspension (not containing the test compound of the invention) in an amount of 5 ml/kg of body weight. Each sample suspension was orally administered every day at a specific time of day for 1 week starting when the rats reached the age of 6 weeks.
Four hours after the administration of the sample suspension, skeletal muscle tissues of the rats were collected, then freeze-clamped and stored under liquid nitrogen. LPL activity in the skeletal muscle tissues was measured by the following method.
The soleus muscle was homogenized in a chilled solution of 0.05 mol/L NH4OH—NH4Cl buffer (pH 8.5) containing 0.5 U/mL heparin at 1 mL/100 mg of tissue wet weight. After standing on ice for 60 min with vigorous mixing at intervals of 15 min, the homogenate was centrifuged at 3000 rpm and 4° C. for 10 min and the supernatant was separated.
The substrate solution was prepared by mixing 2 μCi of glycerol tri[1-^14C]oleate, 0.133 g of unlabeled triolein, 0.9 mL of 1% Triton X-100, and 0.9 mL of 4% bovine serum albumin. in 0.2 mol/L Tris-HCl buffer (pH 8.6) and 10.2 mL of 0.2 mol/L Tris-HCl buffer (pH 8.6). The mixture was emulsified by sonication on ice for 3 min.
In a glass test tube, 0.1 mL of the tissue extract, 0.05 mL of heat-inactivated rat serum and 0.15 mL of 4% bovine serum albumin in 0.2 mol/L Tris-HCl buffer (pH 7.4) were mixed. Enzyme reaction was started by adding 0.2 mL of the substrate solution and was carried out for 30 min. at 37° C.
The reaction was stopped by addition of 2 mL of 1.5 mol/L H2SO4/2-propanol (1:40, v/v), and 1 mL of distilled water and 3 mL of hexane were added into the test tube. After vigorously shaking for 10 min. at room temperature, the test tube was centrifuged for 10 min. at 3000 rpm.
The upper layer (3.5 mL) was collected in a new test tube and mixed with 1 mL of 0.1 mol/L KOH.
The test tube was vigorously shaken for 10 min. at room temperature and then centrifuged for 10 min. at 3000 rpm.
After removing the upper layer, 1 mL of the lower layer (water phase) was transferred into a vial for counting, neutralized with 50 μL of 1.3 mol/L HCl and mixed with 4 mL of scintillator. The radioactivity was measured using a liquid scintillation counter.
The LPL activity increase (%) was calculated from the measured values of LPL activity in the control group and test groups according to the following formula: LPL activity increase (%)=(Test group average value)/(Control group average value)×100−100

Compound: COc1cc(-c2cn3ccccc3n2)ccc1OCc1ccc(Cl)cc1 [Example 10]
- Decrease in plasma triglyceride level (%) ([1]; 10 mg/kg oral): 48%
- Decrease in plasma triglyceride level (%) ([1]; 30 mg/kg oral): 67%
- Decrease in plasma triglyceride level (%) ([1]; 100 mg/kg oral): 74%
- Increase of skeletal muscle LPL activity compared to control (%) (LPL; 30 mg/kg oral): 22%
- Increase of skeletal muscle LPL activity compared to control (%) (LPL; 100 mg/kg oral): 55%
- melting point: 141 to 143 °C
